These results are taken from article PMC11237694, “Novel pentafluorosulfanyl-containing triclocarban analogs selectively kill Gram-positive bacteria” (Microbiology Spectrum, 2024).

Data set [1] in a line: Eukaryotic cell toxicity, MTS assay (CC50). In kind it is cell-based, canine. The following applies: dog, MDCK cells, MTS assay, 4 days; mean of 2 or 3 determinations; read-out: MDCK (CC50) in vitro cytotoxicity. How it is done: (§1) Five eukaryotic cell lines were used to determine the cytotoxicity of the compounds: human embryonic lung (HEL) fibroblast cells, human cervixcarinoma-derived HeLa cells, human T-cell leukemia-derived MT4 cells, MDCK cells, and African Green monkey kidney-derived VERO cells. Semi-confluent cell cultures in 96-well plates were exposed to serial dilutions of the compounds or to medium (= no compound control), then incubated at 37°C. Four days later, the cells were inspected by microscopy to determine the MCC, that is, compound concentration that causes a microscopically detectable alteration of normal cell morphology. Next, the MTS cell viability reagent (CellTiter 96 AQueous MTS Reagent from Promega) was added. After 4 hours of incubation at 37°C, OD at 490 nm was recorded in a microplate reader.
Background: Tetrazolium dyes change colour on reduction, which living cells bring about.

Another data set deals with HeLa cells. The experiment in a line: Eukaryotic cell toxicity, microscopy (MCC). In kind it is cell-based, Human. The following applies: minimum concentration causing microscopically detectable alteration of cell morphology; 4 days. How it is done: as §1
Another data set has as its system HEL cells. Nature of the data set: Eukaryotic cell toxicity, microscopy (MCC). It is filed as cell-based, Human. The following applies: minimum concentration causing microscopically detectable alteration of cell morphology; 4 days. How it is done:
as §1

A further data set has as its system MRSA strain MW2. The experiment in a line: Intravenous MRSA infection model in mice, CFU enumeration in organs. It is filed as in vivo. The settings on record: single i.p. injection 100 µl of 5 mM, 1 hour before or after i.v. infection with 5 × 10^7 CFU MW2; 24 hours. On the procedure:
Mice were infected systemically with the community-associated MRSA strain MW2 at an infectious dose of 5 × 10^7 colony-forming units (CFUs) as described ([26]). Treatment groups were injected intraperitoneally with the compound of interest 1 hour before or after infection, with a saline-injected control group. After 24 hours of infection, mice were sacrificed, and blood, peritoneal fluid, spleen, liver, kidney (left), heart, and lungs were harvested for CFU enumeration to determine the bacterial burden in these organs. […] Although disappointing, the lack of promising results in the single-dose treatments may have a variety of reasons, including rapid metabolism and excretion of the compounds by the liver, or the acknowledged intracellular aspect of S. aureus in its infectious cycle ([27]). […] Additionally, investigating the possibility of topical application for these components presents another viable option.
Animal experiments were performed with 6- to 10-week/old adult male mice. Mice were kept in a pathogen-free facility under standardized conditions: temperature of 21–22°C, illumination of 12-hour light–12-hour dark, and access to tap water and food. Experimental animal protocols were approved by the University of Calgary Animal Care Committee and followed the Canadian Council for Animal Care Guidelines.
MW2 Staphylococcus aureus was grown on brain heart infusion (BHI) agar plates (BD biosciences). A single colony was grown overnight in BHI medium (BD biosciences) at 37°C while shaking. Subcultures of […] of the overnight (ON) culture were grown in 3 mL of the same culture medium for 2 hours at 37°C while shaking to reach the exponential growth phase. Bacteria were brought to a concentration of OD660 1.0 in saline. […]
For assessing bacterial by CFU enumeration, the mice were anesthetized with isoflurane (Fresenius Kabi) and washed with 70% ethanol to collect blood and sacrificed to further collect liver, spleen, kidney (left), heart, and lungs. […] Cultures were counted, and CFUs were calculated taking the weight of the organ into account.

Data set [2] relates to S. epidermidis ATCC 12228. Nature of the data set: Planktonic susceptibility (MIC/MBC), 96-well broth microdilution. It is filed as cell-based, Staphylococcus epidermidis. The following applies: for MBC / MIC: Staphylococcus epidermidis; for MBC: ATCC12228; for MIC: ATCC12228, planktonic, overnight 37°C in MHB. On the procedure:
All bacterial strains subjected to testing had been stored at −70°C prior to the experiment. The experiment commenced by streaking small amounts of the frozen bacterial samples onto Muller-Hinton agar (MHA) culture medium (BD Bacto, Oxoid, Basingstoke, UK Cat# X296B) and allowing for overnight incubation. Bacteria were re-cultured on MHA plates as required to confirm colony morphology and lack of contamination. Strains tested were P. aeruginosa ATCC 27853, E. coli ATCC 25922, Staphylococcus aureus ATCC 25923, MRSA ATCC 33591, S. epidermidis ATCC 12228, Klebsiella pneumoniae ATCC, P. mirabilis ATCC 35659, and 10 clinical isolates of MRSA from Foothills Hospital, Calgary, Canada. To prepare for susceptibility testing, a protocol modified from Lemire et al was used ([28]). MHB was swab-inoculated from MHA colonies and shake-incubated until turbid. Dilution of the broth with 0.9% saline was performed as necessary to match a 1.0 McFarland standard.
MIC and MBC assessments were conducted on all bacterial strains using 96-well microtiter plates. To prepare the wells for bacteria, serial dilutions of the antibacterial agents were carried out along the rows of two microtiter plates. The antibacterials were 2-fold diluted with Mueller-Hinton broth (MHB) in each column, reaching a volume of 75 µL. The 1.0 McFarland standard was diluted 15-fold in MHB, and 75 µL of inoculum was added to the wells treated with antibacterials, resulting in a total volume of 150 µL. The microtiter plates were covered and then shake-incubated overnight at 150 rpm and 37°C. MIC was determined based on visible bacterial growth. In cases of antibacterial opacity or ambiguous results, streaking of well cultures on MHA, overnight incubation, and subsequent comparison with controls were performed. MBC was determined by transferring 3 µL of culture from all MIC microtiter plate wells to 147 µL of Mueller-Hinton broth in fresh plates. These plates were shake-incubated overnight at 150 rpm and 37°C, and bacterial growth was visually inspected.
Background: In broth dilution the organism is exposed to a series of concentrations in liquid medium.

In brackets after ≈: the same amount, converted by molar mass. Entries after “also recorded” stand apart in the source; their conditions may differ.

For the compound `O=C(Nc1ccc(S(F)(F)(F)(F)F)cc1)Nc1ccc(Cl)c(Cl)c1` [EBP-59], in data set [1], the CC50 (as a rule, the concentration at which the toxic effect on the cells reaches its halfway point) at 4 days was not below 100 µM. Also, the “HeLa (MCC) in vitro cytotoxicity” value in the data set on HeLa cells was 4 µM. In addition, the “HEL (MCC) in vitro cytotoxicity” value in the data set on HEL cells is more than 4 µM. In addition, in the data set on MRSA strain MW2, the “bacterial burden (CFU) in blood, spleen, liver, kidney, heart, lungs” value (“bacterial burden (CFU) in blood, spleen” for short) is “failed to reduce bacterial counts; also recorded: not significant”. For the same compound, in data set [2], the “antibacterial efficacy (in words)” value was “effective”; the MBC (as a rule, the lowest tested concentration that kills the bacteria rather than only halting them) came out at 10 µM (≈ 4.07 µg/mL); the MIC (in general, the lowest concentration that inhibits growth of the organism) is 4 µM (≈ 1.63 µg/mL).

As for `O=C(Nc1ccc(Cl)cc1)Nc1ccc(S(F)(F)(F)(F)F)cc1` [EPB-61, 1-(4-Chlorophenyl)-3-(4-(pentafluoro-λ^6-sulfanyl)phenyl)urea], the CC50 at 4 days in data set [1] is not below 100 µM. In addition, the “HeLa (MCC) in vitro cytotoxicity” value with HeLa cells came out at 4 µM. The “HEL (MCC) in vitro cytotoxicity” value in the data set with HEL cells was more than 4 µM. Further, the “bacterial burden (CFU) in blood, spleen” value with MRSA strain MW2 was “failed to reduce bacterial counts; also recorded: not significant”. In data set [2], the “antibacterial efficacy (in words)” value is given as “effective”, the MBC is 40 µM (≈ 14.9 µg/mL) and the MIC was determined as 1 µM (≈ 0.373 µg/mL).

For `O=C(Nc1ccc(Cl)cc1)Nc1cccc(S(F)(F)(F)(F)F)c1` [EBP-62, 1-(4-chlorophenyl)-3-(3-(pentafluoro-λ^6-sulfanyl)phenyl)urea], the CC50 at 4 days in data set [1] is 100 µM. For the same compound, the “HeLa (MCC) in vitro cytotoxicity” value in the data set with HeLa cells is given as more than 4 µM. In addition, in the data set with HEL cells, the “HEL (MCC) in vitro cytotoxicity” value is 20 µM. In addition, the “bacterial burden (CFU) in blood, spleen” value in the data set with MRSA strain MW2 is given as “failed to reduce bacterial counts; also recorded: not significant”. Also, in data set [2], the “antibacterial efficacy (in words)” value is “effective”, the MBC is 100 µM (≈ 37.3 µg/mL) and the MIC is 20 µM (≈ 7.45 µg/mL).
